{"source": "patent US20240423979A1", "about": "“THERAPEUTICALLY EFFECTIVE COMBINATION OF A FLT3 INHIBITOR AND A BCL-2 INHIBITOR FOR THE TREATMENT OF ACUTE MYELOID LEUKEMIA” (Hanmi Pharm. Co., Ltd., priority 2021, published 2024)", "key": {"[1]": {"system": "MV-4-11 cell line with FLT3 ITD/ITD isogenic mutation", "experiment": "MV-4-11 cell line xenografted mouse model, anti-tumor efficacy", "format": "in vivo, BALB/c Nude mouse", "conditions": "MV-4-11 xenograft, Compound A 3 mg/kg; for Maximum inhibition (%): oral once a day for 21 days, combination 3 + 100 mg/kg, largest tumor inhibition rate during observation", "from_the_text": "In a mouse model xenografted with the cell line MV-4-11 with FLT3 ITD/ITD isogenic mutation (ATCC, CRL-9591), a comparative or combination efficacy test of the FLT3 inhibitor, 5-chloro-N-(3-cyclopropyl-5-(((3R,5S)-3,5-dimethylpiperazin-1-yl) methyl) phenyl)-4-(6-methyl-1H-indol-3-yl) pyrimidin-2-amine (hereinafter ‘Compound A’), and the Bcl-2 inhibitor, 4-[4-[[2-(4-chlorophenyl)-4,4-dimethylcyclohexen-1-yl]methyl] piperazin-1-yl]-N-[3-nitro-4-(oxan-4-ylmethylamino) phenyl] sulfonyl-2-(1H-pyrrolo [2,3-b]pyridin-5-yloxy) benzamide (hereinafter ‘venetoclax’), was conducted.\nMV-4-11 cell lines were purchased from the American Type Culture Collection (ATCC). To build a mouse model xenografted with this MV-4-11 cell line, a 5-week-old male BALB/c Nude mouse (hereinafter referred to as “Nude Mouse”) was purchased from Charles River Laboratories Japan, Inc.\nThe MV-4-11 cell line was injected subcutaneously in a nude mouse with 5×10^6 cells/0.15 mL/mouse, and was allowed to grow. Mice with a tumor volume of 80 to 300 mm^3 (length×width^2×0.5) were selected on the day of administration, separated into 4 groups (7/group) and administered for a total of 21 days so that the average tumor volume in each group was almost the same.\nThe control group was administered DMSO/PEG400/DW (ratio=0.5/2/7.5, volume/volume/volume) mixed solution orally once a day, and the compound A group was administered 3 mg/kg/day once a day. It was orally administered, and the venetoclax group was orally administered once a day at a dose of 100 mg/kg/day. In the combined group, compound A was administered orally once a day at a dose of 3 mg/kg/day, and venetoclax was administered orally once a day at a dose of 100 mg/kg/day. Each group was administered individual medications for 21 days.\nThe maximum inhibition rate (%) and the change in weight loss (%) of mice were calculated, and the experimental results are shown in Table 1. The Inhibition rate (IR) was obtained from “(1−mean of individual relative tumor volume in the drug treatment group/average of individual relative tumor volume in the control group)×100%”, and the maximum inhibition rate was the largest inhibition rate during the observation period. The change in weight loss (%) was calculated from “(1−weight on the day of measurement/weight on the start day of administration)×100%”. The relative tumor volume was calculated from “the tumor volume/initial tumor volume×100% at the date of measurement”."}, "[2]": {"system": "MOLM-13 cell line carrying the FLT3-WT/ITD heterogeneous mutation", "experiment": "MOLM-13 cell line xenografted mouse model, anti-tumor efficacy", "format": "in vivo, nude mice", "conditions": "MOLM-13 xenograft, Compound A 10 mg/kg, venetoclax 100 mg/kg; for Maximum inhibition (%): oral once a day for 14 days, combination 10 + 100 mg/kg, largest tumor inhibition rate during observation", "description": "In a mouse model xenografted with the MOLM-13 (DSMZ no. ACC 554) cell line carrying the FLT3-WT/ITD heterogeneous mutation, a comparative or combination efficacy test of the FLT3 inhibitor, 5-chloro-N-(3-cyclopropyl-5-(((3R,5S)-3,5-dimethylpiperazine-1-yl) methyl) phenyl)-4-(6-methyl-1H-indol-3-yl) pyrimidin-2-amine (hereinafter ‘Compound A’) and the Bcl-2 inhibitor, venetoclax was conducted.\nThe MOLM-13 cell line was purchased from Deutsche Sammlung von Mikroorganismen und Zellkulturen (DSMZ) GmbH. To construct a mouse model xenografted with this MOLM-13 cell line, 5-week-old male nude mice were purchased from Charles River Laboratories Japan, Inc.\nThe MOLM-13 cell line was injected subcutaneously into nude mice at 5×10^6 cells/0.2 mL/mouse, and was allowed to grow. Mice having a tumor volume of 55 to 415 mm^3 (length×width^2×0.5) were selected on the day of administration, and after having been divided into 4 groups (3 mice each in the control group and the compound A group, 4 mice each in the venetoclax group and the compound A and venetoclax combination group) so that the average tumor volume of each group was similar, the control group was administered for 11 days, and each drug administration group received individual medications for 14 days. The control group was measured for 12 days, and each drug administration group was measured for 15 days.\nThe control group received an oral administration of a mixed solution of DMSO/PEG400/DW (ratio=0.5/2/7.5, volume/volume/volume) once a day, the compound A group received an oral administration once a day at a dose of 10 mg/kg/day, and the venetoclax group received an oral administration once a day at a dose of 100 mg/kg/day. […]\nThe maximum inhibition rate (%) and the change in weight loss (%) of mice were calculated, and the experimental results are shown in Table 2. […] The change in weight loss (%) was calculated from “(1−body weight on the measurement day/weight on the start date of administration)×100%”. Relative tumor volume was calculated from “tumor volume on measurement day/initial tumor volume×100%”."}, "[3]": {"system": "relapsed or refractory AML", "experiment": "Open-label first-in-human dose escalation, exploration and expansion study", "format": "in vivo", "conditions": "patients with relapsed or refractory AML, single agent, 80 mg dose daily oral", "from_the_text": "This study is an open-label, first-in-human, dose escalation, exploration, and expansion study of Compound A as a single agent and in combination with venetoclax in patients with relapsed or refractory AML. Cycle 1 in dose escalation is defined as 30 days, all other cycles lasting at least 28 days. Patients will receive oral Compound A at QD on a continuous basis, with the exception of Cycle 1 Day 2 in Part A. The study treatment can continue until a discontinuation criterion is met.\nThe initial dose level of Compound A as a single agent was 20 mg daily and the decision to dose escalate to the next dose level is made based on the assessment of safety variables including moderate toxicity (MT, a Grade 2 AE judged by the investigator to be related to study drug (except for hematologic toxicities)) or dose limiting toxicity (DLT). This study includes 3 parts: Part A: Dose Escalation; Part B: Dose Exploration; and Part C: Dose Expansion.\nPart A includes the initial dose escalation cohorts. Provisional dose escalation scheme with the planned doses of Compound A are as follows: 20 mg, 30 mg, 40 mg, 60 mg, 80 mg, 120 mg, 160 mg, 200 mg, or 240 mg. Patients are treated daily in 28-day cycles except for the Cycle 1 (30 days). The DLT observation period is during Cycle 1 starting with the first dose on Day 1. […]"}}, "data": [{"smiles": "Cc1ccc2c(-c3nc(Nc4cc(CN5C[C@@H](C)N[C@@H](C)C5)cc(C5CC5)c4)ncc3Cl)c[nH]c2c1", "note": "[Compound A, 5-chloro-N-(3-cyclopropyl-5-(((3R,5S)-3,5-dimethylpiperazin-1-yl)methyl)phenyl)-4-(6-methyl-1H-indol-3-yl) pyrimidin-2-amine]", "values": [{"measurement": "complete regression (mice out of 7)", "setting": "[1]; 9th day of administration, venetoclax 100 mg/kg", "result": "not observed"}, {"measurement": "partial regression (mice out of 7)", "setting": "[1]; 16th day of administration", "result": "1 out of 7"}, {"measurement": "Maximum inhibition (%)", "setting": "[1]; venetoclax 100 mg/kg", "result": 54.0, "unit": "%"}, {"measurement": "Maximum inhibition (%)", "setting": "[2]", "result": 68.1, "unit": "%"}, {"measurement": "complete regression (mice per group)", "setting": "[2]; combined group on 7th day of administration", "result": "not observed"}, {"measurement": "clinical response (complete responses)", "setting": "[3]", "result": "several complete responses"}]}, {"smiles": "CC1(C)CCC(CN2CCN(c3ccc(C(=O)NS(=O)(=O)c4ccc(NCC5CCOCC5)c([N+](=O)[O-])c4)c(Oc4cnc5[nH]ccc5c4)c3)CC2)=C(c2ccc(Cl)cc2)C1", "note": "[Venetoclax, 4-[4-[[2-(4-chlorophenyl)-4,4-dimethylcyclohexen-1-yl]methyl]piperazin-1-yl]-N-[3-nitro-4-(oxan-4-ylmethylamino)phenyl] sulfonyl-2-(1H-pyrrolo [2,3-b]pyridin-5-yloxy) benzamide, reference compound]", "values": [{"measurement": "Maximum inhibition (%)", "setting": "[1]; venetoclax 100 mg/kg", "result": 76.1, "unit": "%"}, {"measurement": "Maximum inhibition (%)", "setting": "[2]", "result": 56.3, "unit": "%"}]}]}
